Measured values: patent US11766442B2, “T-cell lymphoma treatments” (City of Hope, priority 2017, dated 2023)
pIC50: −log10 of the molar value. Where two headings read alike, the source gives them in different places.

What was measured:
[1] = tested on: HUT78 cells; experiment: Cell viability assay using HUT78 cells in a CELLTITER-GLO assay; format: cell-based, human
Experimental: Compound (1) and FK-228 (an anticancer agent used in CTCL) were tested in a cell viability assay using HUT78 cells in a CELLTITER-GLO® assay. […] See, FIG. 1B.
Compound (2) (FIG. 8A) was tested in a cell viability assay using HUT78 cells in a CELLTITER-GLO® assay. To determine IC50 value of Compound (2) against human CTCL HUT78 cells, viability assay was performed using CELLTITER-GLO® Reagent as described by the supplier (Promega, Madison, WI). Briefly, cells (7500/well) were seeded in opaque 96-well plates and exposed to Compound (1) in a dose-dependent manner for 72 h at 37° C. in 5% CO2. After 72 h treatment with compound (1), CELLTITER-GLO® Reagent ([…]) was added to 96-well plates. Viable cells which are metabolically active are directly proportional to the ATP present. Luminescent signals correlate with the amount of ATP present in cells. After 10 min incubation with CELLTITER-GLO® Reagent, luminescence was measured at an integration time of 1 second/well using an automated BMG plate reader. Dimethyl sulfoxide (DMSO) was used as the vehicle control. Each experiment was conducted in triplicate. IC50 values were determined using CalcuSyn software (Biosoft).

[2] = tested on: HUT78 CTCL mouse xenograft; experiment: HUT78 CTCL mouse xenograft model; format: in vivo; conditions: for Drug associated toxicity observed in mice: compound (1) 20 mg/kg gavage, FK-228 2 mg/kg intraperitoneal twice weekly
Experimental: Compound (1) and FK-228 were tested for tumor growth inhibition in CTCL mouse xenograft models. One group of mice was treated with 20 mg/kg of compound (1) using gavage during 3 consecutive days, followed by 3 consecutive days of break. Another group of mice was treated with 2 mg/kg of FK-228 intraperitoneal, twice weekly. Mice with no treatment served as a control. The tumor volume, size, and weight were compared 12 days after the treatments started.

[3] = tested on: HUT78 CTCL cells
Experimental: Compound (1) was tested in a cell proliferation assay using HUT78 CTCL cells. The cells were treated with 0.3, 1, 3, 10, 30, or 100 nM concentration of compound (1), and then incubated for 48 h or 72 h under the growth conditions. […] Cells cultured in the absence of compound (1) served as a control.

[4] = tested on: HUT78 CTCL cells; experiment: Carboxy-fluorescein succinimidyl ester (CFSE) staining cell proliferation assay; format: cell-based, human; conditions: 1.0, 10 or 100 nM, incubated 72 h
Experimental: Compound (1) was tested in a carboxy-fluorescein succinimidyl ester (CFSE) stained HUT78 CTCL proliferation assay. HUT78 cells were stained with CFSE dye. The CFSE stained cells were plated into 96-well plates in growth medium. The resulted cells were treated with 1.0, 10, or 100 nM solution of compound (1), and then incubated for 72 h under the growth conditions. After, optical densities were read on a multiwell scanning spectrophotometer at wavelength 488 nm.

[5] = tested on: HUT78 CTCL cells; experiment: Cell apoptosis assay using HUT78 CTCL cells; format: cell-based, human; conditions: incubated 72 h, read-out: IC50, apoptosis induction
Experimental: Compound (1) was tested in a cell apoptosis assay using HUT78 CTCL cells.

SMILES	pIC50 ([1]; Homo sapiens)	Reduction of the tumor size ([2]; 20 mg/kg gavage, 3 consecutive days on, 3 days break, 12 days after treatment start)	Tumor weight inhibition ([2]; 20 mg/kg gavage, 3 consecutive days on, 3 days break, 12 days after treatment start, P<0.001) [%]	Tumor growth inhibition (tumor volume) ([2]; 20 mg/kg gavage, 3 consecutive days on, 3 days break, compared 12 days after treatment start, versus FK-228 regimen and vehicle)	Drug associated toxicity observed in mice [2]	pIC50 ([3]; read-out: IC50, cell proliferation, incubated 48 h)	pIC50 ([3]; read-out: IC50, cell proliferation, incubated 72 h)	pIC50 [1]	Inhibition of proliferation of CFSE stained HUT78 CTCL cells [4]	pIC50 [5]
C/C=C1\NC(=O)[C@H]2CSSCC/C=C/[C@H](CC(=O)N[C@H](C(C)C)C(=O)N2)OC(=O)[C@H](C(C)C)NC1=O [FK-228, Romidepsin, reference compound]	8.16	–	–	–	–	–	–	–	–	–
CN1C(=O)[C@@]23C[C@](C)(C#N)[C@H](c4ccc5c(c4)OCO5)N2C(=O)C1(C)S3=S (some centres unmarked) [compound (1)]	–	results in the reduction of the tumor size	89.8	results in tumor growth inhibition	no toxicity was observed	7.12	8.00	8.18	inhibits proliferation of HUT78 CTCL cells	7.71
C/C=C1\NC(=O)[C@H]2CSSCC/C=C/[C@H](CC(=O)N[C@H](C(C)C)C(=O)N2)OC(=O)[C@H](C(C)C)NC1=O [romidespin, romidepsin, reference compound]	–	–	–	–	Ascites and diarrhea	–	–	–	–	–
